In article PMC9633730, “Endowing homodimeric carbamoyltransferase GdmN with iterative functions through structural characterization and mechanistic studies” (Nature Communications, 2022):

Columns and labels:
GdmN = biological target: T1, GdmN (Streptomyces hygroscopicus, UniProt Q84G19, V24Y/G157A/R158A/G188R); experiment: X-ray co-crystal structure; type: binding; conditions: reaction intermediate formed from ATP, MgCl2 and carbamoyl phosphate; carbamoyl group rotated
T1 construct: homodimer; Kae1-like M1-L351, YrdC-like G368-A571, dimerization domain D574-L674; one iron ion per monomer
T1 sequence (Q84G19 entry or part of it V24Y/G157A/R158A/G188R): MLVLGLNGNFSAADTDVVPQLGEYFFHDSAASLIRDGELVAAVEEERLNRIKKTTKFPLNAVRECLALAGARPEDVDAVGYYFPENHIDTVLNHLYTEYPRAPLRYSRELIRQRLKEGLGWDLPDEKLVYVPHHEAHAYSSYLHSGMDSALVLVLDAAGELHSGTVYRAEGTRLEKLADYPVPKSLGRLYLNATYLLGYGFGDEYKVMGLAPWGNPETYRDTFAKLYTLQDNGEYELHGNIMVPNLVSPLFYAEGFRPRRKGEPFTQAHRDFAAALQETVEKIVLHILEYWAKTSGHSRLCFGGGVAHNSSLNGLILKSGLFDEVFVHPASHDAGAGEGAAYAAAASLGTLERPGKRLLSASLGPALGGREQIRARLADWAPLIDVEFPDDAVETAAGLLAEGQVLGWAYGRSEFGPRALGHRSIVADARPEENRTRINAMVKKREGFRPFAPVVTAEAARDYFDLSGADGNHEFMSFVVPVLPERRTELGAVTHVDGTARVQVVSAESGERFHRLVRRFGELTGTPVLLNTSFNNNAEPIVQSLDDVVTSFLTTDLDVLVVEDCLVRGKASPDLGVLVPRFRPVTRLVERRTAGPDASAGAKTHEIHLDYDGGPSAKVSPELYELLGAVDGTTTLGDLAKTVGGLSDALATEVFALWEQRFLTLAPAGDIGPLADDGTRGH

[1] = biological target: GdmN (Streptomyces hygroscopicus XM201); experiment: SEC; Superdex 200 Increase 10/300 GL, buffer C (10 mM Tris, 150 mM NaCl, pH 8.0), calibrated with Bio-Rad gel filtration standards; monomer to dimer

Compound | X-ray co-crystal structure (GdmN) | stoichiometry N [1]
NC(=O)OP(=O)(O)OC[C@H]1O[C@@H](n2cnc3c(N)ncnc32)[C@H](O)[C@@H]1O [carbamoyl-AMP] | complex of GdmN V24Y/G157A/R158A/G188R mutant with carbamoyl-AMP (PDB: 7VZQ) | 
GdmN (enzyme) |  | 2
